Measurements as given in PMC10058894, “Bioactive C21 Steroidal Glycosides from Euphorbia kansui Promoted HepG2 Cell Apoptosis via the Degradation of ATP1A1 and Inhibited Macrophage Polarization under Co-Cultivation” (Molecules, 2023).

Legend:
Type in all cases: cell-based
[1] = MTT assay, cell viability of RAW264.7 cells; details: mouse, half inhibitory of RAW264.7 cells
Procedure: HepG2 cells (1 × 10^4 cells/well) or RAW264.7 cells ([…]) were incubated in 96T wells for 24 h. Then, HepG2 cells were treated with compounds or Adriamycin for 48 h. In addition, RAW264.7 cells were treated with compounds for 24 h. Then, 0.5% MTT (Sigma, Saint Louis, MO, USA) was added to 20 μL/well for 3.5 h. The supernatant was discarded, and DMSO (150 μL/well) was added to dissolve the purple formazan. Cells were agitated for 15 min at room temperature, and the absorbance at 490 nm was recorded by SpetraMax M2 (Molecular Devices, San Jose, CA, USA).
RAW264.7 cells (8 × 10^4 cells/well) were incubated in 96T wells with DMEM for 24 h and then treated with compounds and LPS (1 μg/mL) for 24 h; this included the control group and LPS group. Then, the cell supernatant was collected for nitric oxide production assay. Next, 100 uL/well PBS was added to 96T wells, then 0.5% MTT (Sigma, Saint Louis, MO, USA) was added to 20 μL/well for 3.5 h. DMSO (150 μL/well) was added to dissolve the purple formazan. Cells were agitated for 15 min at room temperature, and the absorbance at 490 nm was recorded by SpetraMax M2 (Molecular Devices, San Jose, CA, USA). The NO inhibition rate (%) = (ODLPS group − ODcompound group)/(ODLPS group-ODcontrol group) × 100%. The IC50 value refers to the inhibitory of nitric oxide production of LPS-stimulated RAW264.7 cells. Then, 70 uL of each cell supernatant sample was added into a new 96T plate, and Griess A and Griess B were added separately. Then, the absorbance value at 540 nm was detected and then brought into the standard curve to assay the concentration of NO. The cell survival rate (%) = (ODcompound group − ODblank group)/(ODcontrol group − ODblank group) × 100%. The half concentration of the cell death (CC50) value refers to the concentration of compound 5 when 50% of RAW264.7 cells die. The iNOS inhibitor ([…], L-NMMA) was selected as the positive control. The levels of cytokines (IL-1β, IFN-γ, IL-10, TNF-α, and IL-6) in the cell supernatant were determined using an ELISA kit (Novus Biologicals, Shanghai, China, Lot: 834472, 770118, 772051, 486956, 602865). When the process was conducted according to the manufacturer’s instructions, the absorbance was read at 450 nm/570 nm in a SpectraMax 340PC microplate spectrophotometer (Molecular Devices, San Jose, CA, USA).

ATP1A1 [2] = biological target: T1, ATP1A1 (Homo sapiens, UniProt P05023); assay: Western blot of ATP1A1 in Huh-7 cells; design: endogenous in cells
Description: 2. The anti-proliferation of compound 5 on Huh-7 cells
We tested another hepatoma cell line (Huh-7) to validate effect of compound 5. L02 (normal hepatocytes), HepG2 and Hub-7 cells were used to discuss the effect of 5. […]
of 5 on Huh-7 cell was (24.49±[…]) μM (Table S1). The morphology and apoptosis of the cells by reversed microscope and flow cytometry, respectively.
Second, the expression and phosphorylation of ATP1A1 were detected by Western blot analysis in L02, HepG2 and Huh-7 cells. Compared with L02 group, the expression of ATP1A1 was higher in HepG2 and Huh-7 cells, but there was no significant difference in the phosphorylation of ATP1A1 (Figure […]
At last, the effect of 5 on the expression and the phosphorylation of ATP1A1 in Huh-7 cells was […]
the phosphorylation of ATP1A1. The result was consistent with that observed in HepG2 cells (Figure […]
Table S1 Cell viability of Huh-7 cell treated by compound 5
Figure S2 Compound 5 inhibited the proliferation and the level of ATP1A1 protein in Huh-7 cells L5, low concentration of 5 (12.5 μmol-1 ); H5, high concentration of 5 (25 μmol-1). […] (B) Image of cell apoptosis in Huh-7 cells was detected by flow cytometry. The cells were double stained with Annexin V and PI. […] Data are expressed as the mean ± standard deviation (n=3). *p<0.05, **p<0.01, ***p<0.001 vs. the control group. […]

[3] = system: ATP1A1-related AKT and ERK signaling pathways; assay: Western blot of AKT and ERK phosphorylation in HepG2 cells; details: 5 at 25 μmol∙L−1, 0~60 min, digitonin 10 nmol∙L−1
Procedure: An Na^+/K^+-ATPase inhibitor (digitonin), AKT inhibitor (MK 2206), and ERK inhibitor (FR 180204) were purchased from Biotech (Beijing, China). These agents were stored at −20 °C, and the cells were preincubated with the inhibitor for 4 h prior to treatment with the compounds. Digitonin, MK 2206, and FR 180204 were used at concentrations of 10, 40, and 200 nmol/L, respectively.
(§1) Protein samples were prepared using a RIPA lysis buffer. The concentration of the protein was analyzed using a nucleic acid and protein microanalyzer (Molecular Devices, San Jose, CA, USA). SDS–PAGE was performed to separate the proteins, which were then electrotransferred onto a PVDF membrane. The membrane was incubated with antibodies at 4 °C overnight. Next, the membrane was washed and incubated with an HRP-conjugated secondary antibody (Beyotime, BeiJing, China). Finally, signals were detected by the ECL method (Beyotime, BeiJing, China) and analyzed using ImageJ software.

ATP1A1 [4] = biological target: T1, ATP1A1; assay: ATP1A1 level and location in HepG2 cells (western blot, fluorescence staining, lysosomal colocalization); design: we focused on the regulatory effect of 5 on ATP1A1 in HepG2 cells; endogenous in cells; host or cells: HepG2
Procedure: HepG2 cells (4 × 10^5 cells/well) were incubated in confocal dishes with DMEM for 24 h and then treated with compounds for 48 h. Then, the cells were treated with 0.1% Triton X-100 for 10 min and washed with PBS five times. Finally, the cells were dyed with anti-ATP1A1 at 4 °C overnight. Nuclear staining with DAPI (1 μg∙mL^−1) was added for 7 min in the dark, and the cells were washed. The stained images were captured under a laser scanning confocal microscope (Nikon A1 AIR MP+, Tokyo, Japan). HepG2 cells (5 × 10^5 cells/well) were incubated in 6-well plates in complete DMEM. Cells were treated with compounds for 24 h. Then, the cells were stained with Annexin V/PI for 30 min at 4 °C in the dark, and apoptosis analysis was carried out by laser scanning confocal microscopy.
as §1

## C[C@H](O)[C@]1(O)CC[C@@]2(O)[C@]1(C)[C@H](OC(=O)/C=C/c1ccccc1)C[C@@H]1[C@@]3(C)CC[C@H](O[C@H]4C[C@H](O)[C@H](O)[C@@H](C)O4)CC3=CC[C@]12O [Compound 5, Cynsaccatol L]
[1]
  CC50 at 24 h: 30.1 ± 3.14 µM
ATP1A1 [2]
  level of ATP1A1 in Huh-7: reduced
[3]
  phosphorylation of AKT and ERK and expression of ATP1A1: all decreased
ATP1A1 [4]; HepG2, 12.5 or 25 μmol∙L−1 for 48 h, 25 μmol∙L−1 for 12 h or 24 h
  endocytosis of ATP1A1 protein (lysosomal colocalization assay): induce the endocytosis of the ATP1A1 protein
ATP1A1 [4]; HepG2, 5 25 μmol∙L−1, digitonin 10, MK 2206 40, FR 180204 200 nmol∙L−1, western blot
  expression of ATP1A1 (comparison with inhibitors): decreased
ATP1A1 [4]; HepG2 cells, fluorescence staining
  green fluorescence intensity of ATP1A1 on the cell membrane: significantly reduced in a dose-dependent manner
ATP1A1 [4]; HepG2 cells, western blot
  level of ATP1A1: significantly reduced
